Where “and” joins values, the source holds several entries; their conditions need not be identical. Equal entries are not always repeated.
Columns and labels:
Type in all cases: in vivo
Digitaria sanguinalis = test: greenhouse post-emergence treatment, DIGSA; conditions: DIGSA
Summary of the method: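 Visual damage score 0–100 (0 = normal growth; 100 = no emergence/above-ground parts destroyed), read 2–4 wk post-treatment. Loamy sand, ~3.0% humus; seedlings grown in place or transplanted days before spraying; water as solvent; 10-25° C. or 20-35° C. per species. Combination expectations by Colby: E=X+Y−(X·Y/100).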

Apera spica-venti [1] = test: greenhouse post-emergence treatment, APESV; conditions: APESV, 20 DAT
Summary of the method: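 Greenhouse; post-emergence spray at 3–15 cm; aqueous EC formulation; 2–4 weeks; 0–100 visual score.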

Polygonum convolvulus = test: greenhouse pre-emergence treatment, POLCO; conditions: POLCO; for % activity, solo application: Table X1
Summary of the method: (§1)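 Seeds were sown per species in pots of loamy sand with about 3.0% humus, sprayed with the aqueous spray liquor directly after sowing, watered and hooded until rooted, then kept at 10-25° C. or 20-35° C. for 2 to 4 weeks. Damage was scored 0 (none) to 100 (no emergence/complete destruction).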

Apera spica-venti [2] = test: greenhouse pre-emergence treatment, APESV; conditions: solo, 20 DAT
Summary of the method: as §1

Papaver rhoeas [3] = test: greenhouse pre-emergence treatment, PAPRH; conditions: 20 DAT; for % activity, solo application: Table X6
From the text: (§2) The culture containers used were plastic pots containing loamy sand with approximately 3.0% of humus as substrate. The seeds of the test plants were sown separately for each species.
For the pre-emergence treatment, the active compounds, suspended or emulsified in water, were applied directly after sowing by means of finely distributing nozzles. The containers were irrigated gently to promote germination and growth and subsequently covered with transparent plastic hoods until the plants had rooted. This cover caused uniform germination of the test plants unless this was adversely affected by the active compounds.
(§3) Depending on the species, the plants were kept at 10-25° C. and 20-35° C., respectively.
(§4) The test period extended over 2 to 4 weeks. During this time, the plants were tended and their response to the individual treatments was evaluated.
(§5) Evaluation was carried out using a scale from 0 to 100. 100 means no emergence of the plants, or complete destruction of at least the above-ground parts, and 0 means no damage or normal course of growth. A good herbicidal activity is given at values of at least 70, and very good herbicidal activity is given at values of at least 85.
(§6) The respective stated components A and B, and if appropriate, C were formulated as a 10% by weight strength emulsion concentrate and, with addition of the amount of solvent system, introduced into the spray liquor used for applying the active compound. In the examples, the solvent used was water.
(§7) In the examples below, using the method of S. R. Colby (1967) “Calculating synergistic and antagonistic responses of herbicide combinations”, Weeds 15, p. 22ff., the value E, which is expected if the activity of the individual active compounds is only additive, was calculated. E=X+Y−(X·Y/100) where X=effect in percent using herbicide A at an application rate a; • Y=effect in percent using herbicide B at application rate b; • E=expected effect (in %) of herbicide A+herbicide B at application rates a+b.

Polygonum aviculare = test: greenhouse post-emergence treatment, POLAV; conditions: POLAV; for % activity, solo application: Table X4
Protocol: as §2
For the post-emergence treatment, the test plants were grown to a plant height of from 3 to 15 cm, depending on the plant habit, and only then treated with the active compounds which had been suspended or emulsified in water. To this end, the test plants were either sown directly, and grown in the same containers, or they were first grown separately as seedlings and transplanted into the test containers a few days prior to treatment.
as §3, §4, §5, §6, §7

Papaver rhoeas [4] = test: greenhouse post-emergence treatment, PAPRH; conditions: PAPRH
Summary of the method: (§8)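 Each species was grown separately and treated once it reached 3 to 15 cm, using actives suspended or emulsified in water. Plants were kept at 10-25° C. or 20-35° C., depending on species. Damage is a 0–100 rating taken during 2 to 4 weeks.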

Galium aparine [5] = test: greenhouse pre-emergence treatment, GALAP; conditions: GALAP
Summary of the method: as §1

Galium aparine [6] = test: greenhouse post-emergence treatment, GALAP; conditions: GALAP
Summary of the method: as §8

Brachiaria decumbens = test: greenhouse pre-emergence treatment, BRADC; conditions: BRADC
Summary of the method: as §1

Echinocloa crus-galli = test: greenhouse post-emergence treatment, ECHCG; conditions: ECHCG
Summary of the method: as §8

[7] = Ex. 5 solo, 62.5 gai/ha, 21 DAT
[8] = Table X8, 20 DAT, solo Ex. 5 250 gai/ha
[9] = Ex. 5 solo, 62.5 gai/ha, 20 DAT
[10] = Table X10, 20 DAT, solo Ex. 5 125 gai/ha
[11] = Table X13, 20 DAT, solo Ex. 5 31.25 gai/ha
[12] = Table X13, 20 DAT, solo Ex. 5 62.5 gai/ha
[13] = 20 DAT, solo Ex. 5 125 gai/ha (Table X66)
[14] = 20 DAT, solo Ex. 5 31.25 gai/ha
[15] = Table X12, 20 DAT, solo Ex. 5 125 gai/ha

## O=C(O)c1nc(C2CC2)ncc1-c1ccccc1Cl [Ex. 5]
Digitaria sanguinalis; 62.5 gai/ha, 20 DAT, Table X3
  % activity, solo application: 30%
Digitaria sanguinalis; 125 gai/ha, 20 DAT, Table X4
  % activity, solo application: 50%
Digitaria sanguinalis; 125 gai/ha, 20 DAT, Table X5
  % activity, solo application: 65%
Digitaria sanguinalis; 250 gai/ha, 20 DAT, Table X4
  % activity, solo application: 70%
Digitaria sanguinalis; 250 gai/ha, 20 DAT, Table X5
  % activity, solo application: 70%
Digitaria sanguinalis; 21 DAT, solo Ex. 5 125 gai/ha
  % activity: 60%
Digitaria sanguinalis; 21 DAT, solo Ex. 5 250 gai/ha
  % activity: 80%
Digitaria sanguinalis; solo Ex. 5 62.5 gai/ha, 20 DAT
  % activity: 35%
Digitaria sanguinalis; solo Ex. 5 125 gai/ha, 21 DAT
  % activity: 45%
Digitaria sanguinalis; solo Ex. 5 250 gai/ha, 21 DAT
  % activity: 65%
Digitaria sanguinalis; solo Ex. 5 500 gai/ha, 20 DAT, 2nd series of rows
  % activity: 75%
Digitaria sanguinalis; [7]
  % activity: 35%
Digitaria sanguinalis; [8]
  % activity: 65%
Digitaria sanguinalis; solo, 62.5 gai/ha, 20 DAT
  % activity: 35%
Digitaria sanguinalis; solo, 125 gai/ha, 20 DAT
  % activity: 50%
Apera spica-venti [1]; solo Ex. 5 62.5 gai/ha
  % activity: 75%
Apera spica-venti [1]; solo, 62.5 gai/ha
  % activity: 70%
Apera spica-venti [1]; solo, 125 gai/ha
  % activity: 80%
Apera spica-venti [1]; solo, 250 gai/ha
  % activity: 85% and 90%
Polygonum convolvulus; 62.5 gai/ha, 20 DAT
  % activity, solo application: 60%
Polygonum convolvulus; 125 gai/ha, 20 DAT
  % activity, solo application: 80%
Polygonum convolvulus; [9]
  % activity: 65%
Polygonum convolvulus; Table X10, 20 DAT, solo Ex. 5 31.25 gai/ha
  % activity: 60%
Polygonum convolvulus; [10]
  % activity: 80%
Polygonum convolvulus; [11]
  % activity: 60%
Polygonum convolvulus; [12]
  % activity: 75%
Polygonum convolvulus; Table X13, 20 DAT, solo Ex. 5 250 gai/ha
  % activity: 90%
Polygonum convolvulus; Table X14, 20 DAT, solo Ex. 5 31.25 gai/ha
  % activity: 60%
Polygonum convolvulus; solo, 31.25 gai/ha, 20 DAT
  % activity: 35%
Polygonum convolvulus; solo, 62.5 gai/ha, 21 DAT
  % activity: 70%
Polygonum convolvulus; solo, 125 gai/ha, 21 DAT
  % activity: 85%
Apera spica-venti [2]; 31.25 gai/ha
  % activity: 75%
Apera spica-venti [2]; 125 gai/ha
  % activity: 80%
Papaver rhoeas [3]; solo Ex. 5 31.25 gai/ha
  % activity: 0%
Papaver rhoeas [3]; 31.25 gai/ha
  % activity, solo application: 20%
Papaver rhoeas [3]; 125 gai/ha
  % activity, solo application: 85%
Papaver rhoeas [3]; solo, 62.5 gai/ha
  % activity: 70%
Polygonum aviculare; 125 gai/ha, 20 DAT
  % activity, solo application: 95%
Polygonum aviculare; 250 gai/ha, 20 DAT
  % activity, solo application: 95%
Polygonum aviculare; [7]
  % activity: 90%
Polygonum aviculare; 20 DAT, solo Ex. 5 62.5 gai/ha
  % activity: 90%
Polygonum aviculare; 20 DAT, solo Ex. 5 125 gai/ha
  % activity: 90%
Polygonum aviculare; [13]
  % activity: 90%
Papaver rhoeas [4]; 62.5 gai/ha, 20 DAT, Table X3
  % activity, solo application: 20%
Papaver rhoeas [4]; 125 gai/ha, 20 DAT, Table X3
  % activity, solo application: 75%
Papaver rhoeas [4]; 125 gai/ha, 20 DAT, Table X4
  % activity, solo application: 5%
Papaver rhoeas [4]; 125 gai/ha, 20 DAT, Table X5
  % activity, solo application: 30%
Papaver rhoeas [4]; [9]
  % activity: 25%
Papaver rhoeas [4]; [7]
  % activity: 60%
Papaver rhoeas [4]; 20 DAT, solo Ex. 5 62.5 gai/ha
  % activity: 70%
Papaver rhoeas [4]; 20 DAT, solo Ex. 5 125 gai/ha
  % activity: 65%
Papaver rhoeas [4]; [13]
  % activity: 65%
Papaver rhoeas [4]; 21 DAT, solo Ex. 5 125 gai/ha
  % activity: 60%
Papaver rhoeas [4]; 21 DAT, solo Ex. 5 250 gai/ha
  % activity: 80%
Papaver rhoeas [4]; solo Ex. 5 62.5 gai/ha, 20 DAT
  % activity: 0%
Papaver rhoeas [4]; solo Ex. 5 62.5 gai/ha, 21 DAT
  % activity: 0%
Papaver rhoeas [4]; solo Ex. 5 125 gai/ha, 21 DAT
  % activity: 10%
Papaver rhoeas [4]; solo Ex. 5 250 gai/ha, 20 DAT
  % activity: 65%
Papaver rhoeas [4]; solo Ex. 5 250 gai/ha, 21 DAT
  % activity: 65%
Papaver rhoeas [4]; solo, 250 gai/ha, 20 DAT
  % activity: 70% and 75%
Galium aparine [5]; 62.5 gai/ha, 20 DAT, Table X1
  % activity, solo application: 0%
Galium aparine [5]; 62.5 gai/ha, 20 DAT, Table X2
  % activity, solo application: 0%
Galium aparine [5]; 62.5 gai/ha, 20 DAT, Table X6
  % activity, solo application: 0%
Galium aparine [5]; 125 gai/ha, 20 DAT, Table X2
  % activity, solo application: 40%
Galium aparine [5]; [9]
  % activity: 0%
Galium aparine [5]; Ex. 5 solo, 125 gai/ha, 20 DAT
  % activity: 0%
Galium aparine [5]; [14]
  % activity: 0%
Galium aparine [5]; 20 DAT, solo Ex. 5 62.5 gai/ha
  % activity: 0%
Galium aparine [5]; 20 DAT, solo Ex. 5 125 gai/ha
  % activity: 0%
Galium aparine [5]; solo Ex. 5 31.25 gai/ha, 20 DAT
  % activity: 0%
Galium aparine [5]; solo Ex. 5 62.5 gai/ha, 20 DAT
  % activity: 0%
Galium aparine [5]; solo Ex. 5 125 gai/ha, 20 DAT
  % activity: 0%
Galium aparine [5]; Table X9, 21 DAT, solo Ex. 5 125 gai/ha
  % activity: 0%
Galium aparine [5]; Table X9, 21 DAT, solo Ex. 5 250 gai/ha
  % activity: 0%
Galium aparine [5]; Table X10, 20 DAT, solo Ex. 5 62.5 gai/ha
  % activity: 0%
Galium aparine [5]; [10]
  % activity: 20%
Galium aparine [5]; Table X10, 20 DAT, solo Ex. 5 250 gai/ha
  % activity: 35%
Galium aparine [5]; Table X11, 20 DAT, solo Ex. 5 62.5 gai/ha
  % activity: 0%
Galium aparine [5]; Table X11, 20 DAT, solo Ex. 5 125 gai/ha
  % activity: 0%
Galium aparine [5]; [12]
  % activity: 20%
Galium aparine [5]; Table X13, 20 DAT, solo Ex. 5 125 gai/ha
  % activity: 35%
Galium aparine [5]; solo, 31.25 gai/ha, 20 DAT
  % activity: 0%
Galium aparine [5]; solo, 62.5 gai/ha, 20 DAT
  % activity: 0%
Galium aparine [5]; solo, 125 gai/ha, 20 DAT
  % activity: 0%
Galium aparine [5]; solo, 250 gai/ha, 21 DAT
  % activity: 25%
Galium aparine [6]; 125 gai/ha, 20 DAT, Table X4
  % activity, solo application: 0%
Galium aparine [6]; 125 gai/ha, 20 DAT, Table X5
  % activity, solo application: 0%
Galium aparine [6]; 250 gai/ha, 20 DAT, Table X4
  % activity, solo application: 30%
Galium aparine [6]; 250 gai/ha, 20 DAT, Table X5
  % activity, solo application: 0%
Galium aparine [6]; Ex. 5 solo, 31.25 gai/ha, 21 DAT
  % activity: 10%
Galium aparine [6]; [9]
  % activity: 0%
Galium aparine [6]; Ex. 5 solo, 250 gai/ha, 21 DAT
  % activity: 25%
Galium aparine [6]; solo Ex. 5 62.5 gai/ha, 20 DAT
  % activity: 0%
Galium aparine [6]; solo Ex. 5 125 gai/ha, 20 DAT
  % activity: 0%
Galium aparine [6]; solo Ex. 5 125 gai/ha, 21 DAT
  % activity: 0%
Galium aparine [6]; [8]
  % activity: 20%
Galium aparine [6]; Table X12, 20 DAT, solo Ex. 5 62.5 gai/ha
  % activity: 0%
Galium aparine [6]; [15]
  % activity: 0%
Galium aparine [6]; solo, 62.5 gai/ha, 20 DAT
  % activity: 0%
Galium aparine [6]; solo, 125 gai/ha, 20 DAT
  % activity: 0%
Galium aparine [6]; solo, 250 gai/ha, 20 DAT
  % activity: 30%
Brachiaria decumbens; 62.5 gai/ha, 20 DAT, Table X2
  % activity, solo application: 80%
Brachiaria decumbens; 125 gai/ha, 20 DAT, Table X6
  % activity, solo application: 95%
Brachiaria decumbens; [14]
  % activity: 20%
Brachiaria decumbens; 20 DAT, solo Ex. 5 62.5 gai/ha
  % activity: 60%
Brachiaria decumbens; 20 DAT, solo Ex. 5 125 gai/ha
  % activity: 70%
Brachiaria decumbens; [9]
  % activity: 60%
Brachiaria decumbens; Ex. 5 solo, 125 gai/ha, 20 DAT
  % activity: 70%
Brachiaria decumbens; [11]
  % activity: 85%
Brachiaria decumbens; solo, 31.25 gai/ha, 20 DAT
  % activity: 55%
Brachiaria decumbens; solo, 62.5 gai/ha, 20 DAT
  % activity: 85%
Echinocloa crus-galli; 62.5 gai/ha, 20 DAT, Table X3
  % activity, solo application: 65%
Echinocloa crus-galli; solo Ex. 5 125 gai/ha, 21 DAT
  % activity: 65%
Echinocloa crus-galli; solo Ex. 5 250 gai/ha, 21 DAT
  % activity: 65%
Echinocloa crus-galli; [15]
  % activity: 65%

Source: patent publication US10966426B2, “Herbicidal compositions comprising phenylpyrimidines” (BASF SE, priority 2016, dated 2021)
